Results taken from patent US10167279B2 (NOVARTIS AG, priority 2014, dated 2019).

Target: C-Raf FL (Homo sapiens (Human), UniProt P04049, Y340E/Y341E)
Experiment: In vitro Raf activity determination (Alpha Screen, phospho-MEK), C-Raf FL (full length, Y340E/Y341E)
Assay type: biochemical
Conditions: ATP 1 μM; 60 min pre-incubation; 1 hour reaction; column head does not say FL or TR
Procedure, shortened: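 Sf9-expressed C-Raf incubated with biotinylated kinase-dead MEK1 (K97R) in 50 mM Tris pH 7.5, 15 mM MgCl2, 0.01% BSA, 1 mM DTT with compound, 60 min at room temperature. Phospho-MEK detected by anti-p-MEK AlphaScreen luminescence; IC50 by non-linear regression.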

Sequence of C-Raf FL (P04049 whole entry Y340E/Y341E): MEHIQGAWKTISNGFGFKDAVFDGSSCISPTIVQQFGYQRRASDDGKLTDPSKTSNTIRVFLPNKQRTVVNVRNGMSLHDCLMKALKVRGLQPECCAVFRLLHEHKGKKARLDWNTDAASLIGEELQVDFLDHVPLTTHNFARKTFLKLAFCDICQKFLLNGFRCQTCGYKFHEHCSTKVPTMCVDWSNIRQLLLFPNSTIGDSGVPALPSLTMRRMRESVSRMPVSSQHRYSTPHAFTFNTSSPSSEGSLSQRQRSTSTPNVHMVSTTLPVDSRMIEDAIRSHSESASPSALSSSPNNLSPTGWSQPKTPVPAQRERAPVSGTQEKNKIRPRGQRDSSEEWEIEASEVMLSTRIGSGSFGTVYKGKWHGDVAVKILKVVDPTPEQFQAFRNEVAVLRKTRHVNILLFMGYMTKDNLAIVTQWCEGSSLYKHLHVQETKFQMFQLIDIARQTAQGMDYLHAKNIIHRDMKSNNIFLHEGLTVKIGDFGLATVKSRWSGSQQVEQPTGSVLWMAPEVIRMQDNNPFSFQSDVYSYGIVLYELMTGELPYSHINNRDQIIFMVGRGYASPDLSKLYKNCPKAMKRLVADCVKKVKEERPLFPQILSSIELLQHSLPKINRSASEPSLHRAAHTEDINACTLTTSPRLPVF
Sequence of C-Raf FL (P63104 whole entry partner): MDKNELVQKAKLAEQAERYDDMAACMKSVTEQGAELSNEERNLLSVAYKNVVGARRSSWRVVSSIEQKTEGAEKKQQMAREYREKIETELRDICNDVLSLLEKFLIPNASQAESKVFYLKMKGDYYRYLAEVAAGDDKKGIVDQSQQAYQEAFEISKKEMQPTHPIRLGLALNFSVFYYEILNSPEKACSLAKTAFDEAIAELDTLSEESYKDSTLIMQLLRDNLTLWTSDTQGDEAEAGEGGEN

| SMILES | IC50 [nM] |
| --- | --- |
| Cc1ccc(NC(=O)c2cc(C(F)(F)F)ccn2)cc1-c1cc2c(c(C3CCOCC3)c1)OC(C)(C)C(=O)N2 [Example 199, N-(3-(2,2-dimethyl-3-oxo-8-(tetrahydro-2H-pyran-4-yl)-3,4-dihydro-2H-benzo[b][1,4]oxazin-6-yl)-4-methylphenyl)-4-(trifluoromethyl) picolinamide] | 1 |
| CCOc1ncc(-c2cc(NC(=O)c3ccnc(C(C)(C)C#N)c3)ccc2C)cc1C1(CO)CCOC1 (centres unmarked) [Example 289, 2-(2-cyanopropan-2-yl)-N-(3-(6-ethoxy-5-(3-(hydroxymethyl)tetrahydrofuran-3-yl)pyridin-3-yl)-4-methylphenyl) isonicotinamide] | 2 |
| Cc1ccc(NC(=O)c2ccnc(C(F)(F)F)c2)cc1-c1cc(OCCO)nc(C2(C)CCOCC2)c1 [Example 205, N-(3-(2-(2-hydroxyethoxy)-6-(4-methyltetrahydro-2H-pyran-4-yl)pyridin-4-yl)-4-methylphenyl)-2-(trifluoromethyl) isonicotinamide] | 0.4 |
| CCC(F)(F)c1cc(C(=O)Nc2cnc(C)c(-c3cc(NCCO)nc(C4CCOCC4)c3)c2)ccn1 [Example 182, 2-(1,1-difluoropropyl)-N-(2′-((2-hydroxyethyl)amino)-2-methyl-6′-(tetrahydro-2H-pyran-4-yl)-[3,4′-bipyridin]-5-yl) isonicotinamide] | 0.951 |
| COc1ncc(-c2cc(NC(=O)c3cc(C(F)(F)F)cc(C(C)(C)N)n3)ccc2C)cc1C1(O)COC1 [Example 19, 6-(2-aminopropan-2-yl)-N-(3-(5-(3-hydroxyoxetan-3-yl)-6-methoxypyridin-3-yl)-4-methylphenyl)-4-(trifluoromethyl)picolinamide] | 7 |
| Cc1ccc(NC(=O)c2ccnc(C(F)F)c2)cc1-c1cc(OCCO)nc(C2(F)COC2)c1 [Example 53] | 0.624 |
| Cc1ccc(NC(=O)c2cc(C(F)(F)F)ccn2)cc1-c1cc(OCCO)nc(C2CCOCC2O)c1 (centres unmarked) [Example 247] | 0.4 |
| Cc1nc2cc(C3CCOCC3)cc(-c3cc(NC(=O)c4cc(C(F)(F)F)ccn4)ccc3C)c2[nH]1 [Example 224, N-(4-methyl-3-(2-methyl-5-(tetrahydro-2H-pyran-4-yl)-1H-benzo[d]imidazol-7-yl)penyl)-4-(trifluoromethyl) picolinamide] | 5 |
| CCOc1ncc(-c2cc(NC(=O)c3cccc(C(F)(F)F)c3)cnc2C)cc1C1(CO)CCOC1 (centres unmarked) [Example 290, N-(6′-ethoxy-5′-(3-(hydroxymethyl)tetrahydrofuran-3-yl)-2-methyl-[3,3′-bipyridin]-5-yl)-3-(trifluoromethyl) benzamide] | 2 |
| Cc1ncc(NC(=O)c2ccnc(C(C)(F)F)c2)cc1-c1cc(C2(O)COC2)cc(C2(F)COC2)c1 [Example 141, 2-(1,1-difluoroethyl)-N-(5-(3-(3-fluorooxetan-3-yl)-5-(3-hydroxyoxetan-3-yl)phenyl)-6-methylpyridin-3-yl)isonicotinamide] | 5.9 |
| CCOc1nnc(-c2cc(NC(=O)c3cnc(C(F)(F)F)cn3)ccc2C)cc1C1CCOCC1 [Example 230, N-(3-(6-ethoxy-5-(tetrahydro-2H-pyran-4-yl)pyridazin-3-yl)-4-methylphenyl)-5-(trifluoromethyl) pyrazine-2-carboxamide] | 11 |
| Cc1ncc(NC(=O)c2ccnc(C(F)(F)F)c2)cc1-c1cc(OCCO)nc(C2(F)COC2)c1 [Example 51, N-(2′-(3-fluorooxetan-3-yl)-6′-(2-hydroxyethoxy)-2-methyl-[3,4′-bipyridin]-5-yl)-2-(trifluoromethyl)isonicotin-amide] | 2.79 |
| Cc1ncc(NC(=O)c2cccc(C(F)(F)F)c2)cc1-c1cc(NCCO)nc(C2(O)CCOCC2)c1 [Example 302, N-(2′-((2-hydroxyethyl)amino)-6′-(4-hydroxytetrahydro-2H-pyran-4-yl)-2-methyl-[3,4′-bipyridin]-5-yl)-3-(trifluoromethyl) benzamide] | 1.53 |
| COc1ncc(-c2cc(C(=O)Nc3ccnc(C(F)(F)F)c3)ccc2C)cc1C1(O)COC1 [Example 17, 3-(5-(3-hydroxyoxetan-3-yl)-6-methoxypyridin-3-yl)-4-methyl-N-(2-(trifluoromethyl)pyridin-4-yl)benzamide] | 0.7 |

Next, values leading:

| IC50 [nM] | SMILES |
| --- | --- |
| 0.2 | Cc1ccc(NC(=O)c2ccnc(C(C)(C)C#N)c2)cc1-c1cc(OCCO)nc(C2(CF)CCOCC2)c1 [Example 213, 2-(2-cyanopropan-2-yl)-N-(3-(2-(4-(fluoromethyl)tetrahydro-2H-pyran-4-yl)-6-(2-hydroxyethoxy)pyridin-4-yl)-4-methylphenyl) isonicotinamide] |
| 0.2 | Cc1ccc(NC(=O)c2cnc(C(F)(F)F)cn2)cc1-c1cc(OC[C@H](O)CO)nc(C2CCOCC2)c1 [Example 277, (R)-N-(3-(2-(2,3-dihydroxypropoxy)-6-(tetrahydro-2H-pyran-4-yl)pyridin-4-yl)-4-methylphenyl)-5-(trifluoromethyl) pyrazine-2-carboxamide] |
| 0.03 | Cc1ccc(NC(=O)c2cc(C(F)(F)F)cnn2)cc1-c1cc(OC[C@H](O)CO)nc(C2CCOCC2)c1 [Example 274] |
| 0.05 | Cc1ccc(NC(=O)c2cncc(C(F)(F)F)c2)cc1-c1cc(OC[C@H](O)CO)nc(C2CCOCC2)c1 [Example 281, (R)-N-(3-(2-(2,3-dihydroxypropoxy)-6-(tetrahydro-2H-pyran-4-yl)pyridin-4-yl)-4-methylphenyl)-5-(trifluoromethyl) nicotinamide] |
| 0.281 | Cc1ccc(NC(=O)c2ccnc(C(C)(F)F)c2)cc1-c1cc(OCCO)nc(C2(CF)COC2)c1 [Example 56, 2-(1,1-difluoroethyl)-N-(3-(2-(3-(fluoromethyl)oxetan-3-yl)-6-(2-hydroxyethoxy)pyridin-4-yl)-4-methylphenyl)isonicotin-amide] |
| 0.04 | CCOc1nnc(-c2cc(NC(=O)c3ccnc(C(F)(F)F)c3)ccc2C)cc1C1CCOCC1 [Example 239, N-(3-(6-ethoxy-5-(tetrahydro-2H-pyran-4-yl)pyridazin-3-yl)-4-methylphenyl)-2-(trifluoromethyl) isonicotinamide] |
| 0.0155 | Cc1ccc(NC(=O)c2ccnc(C(F)(F)F)c2)cc1-c1cc(OCCO)nc(C2(C(F)F)COC2)c1 [Example 58, N-(3-(2-(3-(difluoromethyl)oxetan-3-yl)-6-(2-hydroxyethoxy)pyridin-4-yl)-4-methylphenyl)-2-(trifluoromethyl)isonicotin-amide] |
| 0.1 | COCCOc1nnc(-c2cc(NC(=O)c3ccnc(C(F)(F)F)c3)ccc2C)cc1C1CCOCC1 [Example 315, N-(3-(6-(2-methoxyethoxy)-5-(tetrahydro-2H-pyran-4-yl)pyridazin-3-yl)-4-methylphenyl)-2-(trifluoromethyl) isonicotinamide] |
| 0.4 | CCOc1ncc(-c2cc(NC(=O)c3ccnc(C(C)(C)C#N)c3)cnc2C)cc1C1CCOCC1 [Example 164, 2-(2-cyanopropan-2-yl)-N-(6′-ethoxy-2-methyl-5′-(tetrahydro-2H-pyran-4-yl)-[3,3′-bipyridin]-5-yl)isonicotinamide] |
| 0.2 | Cc1ccc(NC(=O)c2cc(C(F)(F)F)ccn2)cc1-c1cc(OC[C@@H](O)CO)nc(C2CCOCC2)c1 [Example 284] |
| 0.0747 | Cc1ccc(NC(=O)c2ccnc(C(F)F)c2)cc1-c1cc(OCCO)nc(C2(CF)COC2)c1 [Example 55, 2-(difluoromethyl)-N-(3-(2-(3-(fluoromethyl)oxetan-3-yl)-6-(2-hydroxyethoxy)pyridin-4-yl)-4-methylphenyl)isonicotin-amide] |
| 0.04 | COC1(c2cc(-c3cc(NC(=O)c4cccc(C(F)(F)F)c4)ccc3C)cc(NCCO)n2)COC1 [Example 153, N-(3-(2-((2-hydroxyethyl)amino)-6-(3-methoxyoxetan-3-yl)pyridin-4-yl)-4-methylphenyl)-3-(trifluoromethyl)benzamide] |
| 0.2 | Cc1ccc(NC(=O)c2ccnc(C(F)(F)F)c2)cc1-c1cc(C2(C)COC2)c(OCCO)nn1 [Example 14, N-(3-(6-(2-hydroxyethoxy)-5-(3-methyloxetan-3-yl)pyridazin-3-yl)-4-methylphenyl)-2-(trifluoromethyl)isonicotinamide] |
| 0.2 | Cc1ccc(NC(=O)c2ccnc(C3(C(F)(F)F)CC3)c2)cc1-c1cc(OC[C@H](O)CO)nc(C2CCOCC2)c1 [Example 275, (R)-N-(3-(2-(2,3-dihydroxypropoxy)-6-(tetrahydro-2H-pyran-4-yl)pyridin-4-yl)-4-methylphenyl)-2-(1-(trifluoromethyl)cyclopropyl) isonicotinamide] |
| 0.3 | CCOc1ncc(-c2cc(NC(=O)c3cnnc(C(F)(F)F)c3)cnc2C)cc1C1CCOCC1 [Example 163, N-(6′-ethoxy-2-methyl-5′-(tetrahydro-2H-pyran-4-yl)-[3,3′-bipyridin]-5-yl)-6-(trifluoromethyl) pyridazine-4-carboxamide] |
| 0.06 | CCN1CCC(Oc2nnc(-c3cc(NC(=O)c4ccnc(C(F)(F)F)c4)ccc3C)cc2C2CCOCC2)CC1 [Example 314, N-(3-(6-((1-ethylpiperidin-4-yl)oxy)-5-(tetrahydro-2H-pyran-4-yl)pyridazin-3-yl)-4-methylphenyl)-2-(trifluoromethyl) isonicotinamide] |
| 0.0853 | Cc1ncc(NC(=O)c2cccc(C(F)(F)F)c2)cc1-c1cc(OCCO)nc(C2(CF)COC2)c1 [Example 132, N-(2′-(3-(fluoromethyl)oxetan-3-yl)-6′-(2-hydroxyethoxy)-2-methyl-[3,4′-bipyridin]-5-yl)-3-(trifluoromethyl)benzamide] |
| 0.3 | Cc1ccc(NC(=O)c2cc(C(F)(F)F)c(Cl)cn2)cc1-c1cc(OC[C@H](O)CO)nc(C2CCOCC2)c1 [Example 282, (R)-5-chloro-N-(3-(2-(2,3-dihydroxypropoxy)-6-(tetrahydro-2H-pyran-4-yl)pyridin-4-yl)-4-methylphenyl)-4-(trifluoromethyl) picolinamide] |
